Columns and labels:
[1] = system: transplanted tumor of human hepatoma cell HepG-2; assay: HepG-2 transplanted tumor in nude mice; details: HepG-2 nude mice, 30 mg/kg
Procedure: (§1) Then cell concentration was adjusted to 1×10^7/ml with matrigel, then each nude mouse was inoculated subcutaneously with 0.2 ml of cells at its right armpit and recorded as the first day of inoculation. When the tumor grows to be greater than or equal to 100 mm^3, the mice were randomly divided into 11 groups with 6 mice in each group: a model group, a cyclophosphamide group, isovaleryl spiramycin I groups with doses of 25, 50 and 100 mg/kg, isovaleryl spiramycin II groups with doses of 25, 50 and 100 mg/kg, and isovaleryl spiramycin III groups with doses of 25, 50 and 100 mg/kg. Each group was continuously administered intragastrically for 30 days with a dose of 20 ml/kg. The mice were sacrificed the next day after drug withdrawal and the indicators were tested. The long diameter and short diameter of the tumor, and the body weight of each mouse were recorded every 3 days from drug administration to nude mouse sacrifice.
(§2) The body weight of the nude mice and the long diameter (a) and short diameter (b) of the transplanted tumor were measured every 3 days, and the tumor volume (v), relative tumor volume (RTV) and relative tumor proliferation rate (T/C) are calculated respectively according to the following formulas, wherein V=a×b^2/2; RTV=V/V0 (V0 is the tumor volume before administration, V is the tumor volume before sacrifice), and T/C (%)=treatment group RTV/model control group RTV×100%.
(§3) Each mouse was weighed and sacrificed. After the tumor was completely stripped off from the body of the mouse, the non-tumor tissues such as blood stains and fat were removed to weigh the tumor and calculate the tumor growth inhibition rate. The average tumor weight of each group of mice is used as an indicator of efficacy. Tumor growth inhibition rate (%)=(1−the average tumor weight of the treatment group/the average tumor weight of the model group)×100%.

[2] = system: transplanted tumor of human non-small cell lung cancer cell A549; assay: A549 transplanted tumor in nude mice; details: A549 nude mice, 30 mg/kg
Procedure: as §1, with “A549 cells in a logarithmic growth phase were taken and subjected to a trypan blue exclusion experiment showing that the cell viability was more than 95%, then the cells were subjected to trypsinization, centrifugation, and supernatant removal. Then” for “Then”
as §2, §3

[3] = Thymus index and spleen index of H22 liver cancer tumor-bearing mice
Procedure: In the H22 liver cancer model, the mice inoculated with the tumor were randomly divided into groups with 10 mice in each group on the next day of inoculation. The groups included: a model control group, a positive drug cyclophosphamide control group (CTX, 26 mg/kg), isovaleryl spiramycin I groups with doses of 13, 26 and 52 mg/kg; isovaleryl spiramycin II groups with doses of 13, 26 and 52 mg/kg; isovaleryl spiramycin III groups with doses of 13, 26 and 52 mg/kg. Each group was continuously administered intragastrically for 7 days with a dose of 20 ml/kg.

## O=P1(N(CCCl)CCCl)NCCCO1 (stereo not shown) [Cyclophosphamide, cyclophosphamide, reference compound]
[1]
  Inhibition Rate (%): 71.04%
  Relative Tumor Proliferation Rate (T/C): 39.27%
  Relative Tumor Volume (RTV): 6.58 ± 2.18
  Tumor Weight: 0.07 ± 0.38 g
[1]; d1
  Body Weight (g) (d1): 21.89 ± 1.84 g
  Tumor Volume (mm3) (d 1): 119.66 ± 7.65 mm3
[1]; d30
  Body Weight (g) (d30): 19.67 ± 1.49 g
  Tumor Volume (mm3) (d30): 792.56 ± 287.31 mm3
[2]
  Inhibition Rate (%): 70.59%
  Relative Tumor Proliferation Rate (T/C): 39.73%
  Relative Tumor Volume (RTV): 9.47 ± 2.91
  Tumor Weight: 0.70 ± 0.39 g
[2]; d1
  Body Weight (g) (d1): 21.89 ± 1.22 g
  Tumor Volume (mm3) (d 1): 115.15 ± 10.00 mm3
[2]; d30
  Body Weight (g) (d30): 19.27 ± 1.49 g
  Tumor Volume (mm3) (d30): 733.89 ± 352.79 mm3
[3]; H22 tumor-bearing mice, cyclophosphamide, P<0.01
  thymus index and spleen index compared with the control group: significantly lower
[3]; dose 26 mg/kg
  Spleen Index (%): 0.38 ± 0.09 %
  Thymus Index (%): 0.04 ± 0.02 %
